{"source": "patent US10561708B2", "about": "“Anti-tumor therapy” (The University of Chicago, priority 2013, dated 2020)", "key": {"CWR-22RV1 xenografts": {"system": "CWR-22RV1 xenografts", "assay": "Xenograft tumor growth in nude mice", "type": "in vivo", "experimental": "(§1) To determine the potential therapeutic value of targeting the JAK/STAT pathway in prostate cancer, the cells were exposed to the specific JAK2 inhibitor SAR302503. Since it is expected that the greatest value of inhibiting the JAK/STAT pathway is in combination with other toxic insults we evaluated the effect of ionizing radiation used in the treatment of CRPC, and SAR302503 in the genetically related CWR lines (FIG. 2). Cells were plated in p60 dishes with or w/o 0.5 μM of SAR302503 and irradiated with 2 or 5 Gy (or left un-irradiated). Colonies counting and estimation of survival fractions were performed as described elsewhere (Khodarev et. al., 2007, Cancer Research). […] To extend these observations in preclinical animal models we established xenografts of CWR-R1 and CWR-22RV1. For this purpose 10^7 cells were injected in the right flank of each nude mice (5 animals per group) and when tumors reached 200 mm^3 in volume mice were either left un-treated, or treated with SAR302503 (120 mg/kg, once a day, 4 days) or irradiated locally (2×10 Gy) or subjected to combined treatments with SAR302503 and IR. […] At the same tumors treatment by SAR302503 alone led to the 4-days growth delay compared with control tumors. These effects were not observed in CWRR1. Molecular differences between two tumors are currently under investigation. The difference between CWR-R1 and CWR-22RV1 is especially noteworthy since they are isogenic, castrate resistant, and carry both native and splice variant androgen receptor, which is reminiscent of the findings in human prostate cancer specimens."}, "CWR-R1 xenografts": {"system": "CWR-R1 xenografts", "assay": "Xenograft tumor growth in nude mice", "type": "in vivo", "conditions": "CWRR1", "experimental": "as §1"}, "CWR-22RV1 cells": {"system": "CWR-22RV1 cells", "assay": "Clonogenic survival with ionizing radiation with or w/o SAR302503", "type": "cell-based", "conditions": "0.5 μM SAR302503, 2 or 5 Gy", "experimental": "(§2) These cell lines were characterized for relative radioresistance using a clonogenic assay. Briefly, the cells were cultured in their appropriate media at 5% CO2 at 37° C. Optimal cell plating concentrations for a p60 dish were determined for each cell line. The majority of cell lines were plated in triplicate at concentrations of 100 cells/plate for control, 1000 cells/plate for 2 Gy, 2000 cells/plate for 5 Gy, and 3000 cells/plate for 8 Gy. Plates were irradiated 24 hours after plating with either 2, 5, or 8 Gy using a irradiated using a Nordion Gammacell ^60Co irradiator operating at a dose rate of ˜18 Gy/minute. Cells were allowed to grow for 10-21 days (depending on the cell line) until colonies were >50 cells. Plates were then fixed with formalin and stained with crystal violet. Colonies with more than 50 cells were counted. Clonogenic survival for Clonogenic data was obtained for all cell lines tested in screen.\n(§3) To determine the potential therapeutic value of targeting the JAK/STAT pathway in prostate cancer, the cells were exposed to the specific JAK2 inhibitor SAR302503. Since it is expected that the greatest value of inhibiting the JAK/STAT pathway is in combination with other toxic insults we evaluated the effect of ionizing radiation used in the treatment of CRPC, and SAR302503 in the genetically related CWR lines (FIG. 2). […]"}, "CWR-R1 cells": {"system": "CWR-R1 cells", "assay": "Clonogenic survival with ionizing radiation with or w/o SAR302503", "type": "cell-based", "conditions": "0.5 μM SAR302503, 2 or 5 Gy", "experimental": "as §2, §3"}}, "data": [{"smiles": "Cc1cnc(Nc2ccc(OCCN3CCCC3)cc2)nc1Nc1cccc(S(=O)(=O)NC(C)(C)C)c1", "note": "[SAR302503]", "values": [{"measurement": "tumor growth, combined treatment with IR", "setting": "CWR-22RV1 xenografts; 120 mg/kg once a day 4 days + IR 2×10 Gy, by day 9 after beginning of treatment", "value": "significant suppression of tumor growth"}, {"measurement": "growth delay compared with control tumors, inhibitor alone", "setting": "CWR-22RV1 xenografts; 120 mg/kg, once a day, 4 days", "value": 4, "unit": "days"}, {"measurement": "tumor growth, combined treatment with IR", "setting": "CWR-R1 xenografts; 120 mg/kg once a day 4 days + IR 2×10 Gy", "value": "not observed"}, {"measurement": "growth delay compared with control tumors, inhibitor alone", "setting": "CWR-R1 xenografts; 120 mg/kg, once a day, 4 days", "value": "not observed"}, {"measurement": "enhancement of effects of IR (survival fraction, colonies)", "setting": "CWR-22RV1 cells", "value": "significantly enhanced"}, {"measurement": "enhancement of cytotoxic activity of IR (survival fraction, colonies)", "setting": "CWR-R1 cells", "value": "not enhanced"}]}]}
